Solubility and thermal stability data for 1 compound are collected here from patent publication US8389744B1, “TTPO (5 6,7-trithiapentacene-13-one) and its derivatives: a new class of thermally stable, photooxidatively resistant organic semiconductors” (University of New Hampshire, priority 2011, dated 2013).

A value given as a limit tells only on which side of the number the result lay.

The nature of data set [1]: Solubility in organic solvents. The format is physicochemical.
A further data set is described as follows: Thermal stability. Type of data set: physicochemical. Conditions: stable up to and including this temperature.

With `O=C1c2cc3ccccc3c3c2C2=S(S3)Sc3c2c1cc1ccccc31` [TTPO, 5,6,7-Trithiapentacene-13-one], the solubility entry in data set [1] was “soluble in a variety of organic solvents”. Further, the thermal stability in “Thermal stability” was at most 450 °C.
